Tests used:
[1] = system: A549 lung adenocarcinoma cells; assay: EGF-induced membrane ruffles, F-actin staining; format: cell-based; settings: 24 h
Procedure: Cells were stimulated with EGF (200 ng/ml) for 5 min, and fixed and stained with Rhodamine Phalloidin for F-actin.
Cells were grown on glass coverslips and treated with vehicle or 4c for 24h. Lung cancer cells that were stimulated with epidermal growth factor (EGF) were serum starved prior to stimulation with 200 ng/ml EGF for 5 min. Following fixation in 4% formaldehyde, cells were stained for F-actin with Rhodamine phalloidin and visualized by fluorescence microscopy. 5 random fields were scored for the number of ruffles.

MDA-MB-435 = assay: Cell viability assay (MTT); format: cell-based, human; settings: Homo sapiens, MDA-MB-435
Procedure: Cells plated at equal density were treated at 500 nM of compounds. After 72 hours, cell viability was measured by a MTT assay. n=3; * p<0.05, ** p<0.01, *** p<0.001.
Cells plated at equal density were treated at 250 nM of 4c at 250 nM.
Data from 3 biologic replicates each with 2 technical replicates. Four parameter dose-response curves generated using GraphPad Prism are shown.
[…]. GI50 was calculated using Graph pad Prism.
(§1) […] Using CellTiter 96 Non-Radioactive Cell Proliferation Assay (Promega, Corp.) according to manufactures' instructions, formazan was used as an indicator of viable cells at an absorbance 570 nm in a Tecan Microplate Reader M100. Data was calculated as fold change from vehicle and fitted using the 4′parameter logic nonlinear regression model in GraphPad Prism software. (n=3 biologic replicates: with 3 technical replicates each).
A range of compounds were tested by MTT assays for cell viability in MDA-MB-231 triple negative breast cancer (TNBC) cells and MDA-MB-435 HER2++ cancer cells. […].

Panc-1 [2] = assay: Cell viability assay (MTT); format: cell-based; settings: Homo sapiens, 120 hours, 0-1000 nM
Procedure: as §1

[3] = system: RAW264.7 macrophage cell line; assay: Wound healing assay; format: cell-based, murine; settings: Mus musculus, read-out: inhibition of wound closure, RAW264.7
Procedure: (§2) Mircrographs were digitally acquired at 0, 12, and 24 hours and the area of the wound quantified relative to the distance at time 0. n=3.
Murine macrophage cell line, RAW264.7, plated at equal density were subjected to a scratch in the center and treated with 4c at 0, 150 nM, 250 nM, or 500 nM. Mircrographs were digitally acquired at 0, 12, and 24 hours and the area of the wound quantified relative to the distance at time 0. n=3.

Rac1 = molecular target: T1, Rac1 (Homo sapiens, UniProt P63000); assay: Rac activation assay (PAK-PBD pulldown); format: cell-based; settings: 250 nM, 24 hours, MDA-MB-231
T1 construct: endogenous in cells; host or cells: MDA-MB-231
Procedure: MDA-MB-231 breast cancer cells were treated for 24 hours with 0 or 250 nM 4c. Cells were lysed and equal amounts of proteins were subjected to pull-down assays using the p21-binding domain of PAK to isolate GTP bound Rac. Top panel, pulldown showing GTP bound Rac1; middle panel, total Rac1 in lysates; bottom panel, actin as a loading control.
MDA-MB-231 triple negative breast cancer cells were seeded at equal density and treated with vehicle or Compound 4c for 24 hrs at various concentrations. Rac-GTP was detected using Rac Activity Assay, as per manufacturer's instructions (Cell Signaling). Briefly, total cell lysates were quantified and added equally to Pak-PBD beads. After 1 hr of incubation, beads were washed and Rac1-GTP (in pellets) or total Rac1 (in cell lysates) was detected by western blot using Rac1 antibody. (n=3 biological replicates).

Panc-1 [4] = assay: Wound healing assay; format: cell-based; settings: Homo sapiens, 24 hr, read-out: inhibition of Panc-1 cell migration
Procedure: as §2
Panc-1 cells plated at equal density were subjected to a scratch in the center and treated with 4c at 0, 150 nM, 250 nM, or 500 nM. Mircrographs were digitally acquired at 0, 12, and 24 hours and the area of the wound quantified relative to the distance at time 0. n=3.

Structure (SMILES): CCn1c2ccccc2c2cc(-n3nnc(C(O)c4cccc(OC)c4)c3-c3ccccc3)ccc21 (stereo not shown) [Compound 4c, (1-(9-ethyl-9H-carbazol-3-yl)-5-phenyl-1H-1,2,3-triazol-4-yl) (3-methoxyphenyl) methanol]
- reduction of membrane ruffles in response to EGF ([1]; 250 nM): 20%
- reduction of membrane ruffles in response to EGF ([1]; 500 nM): ~38%
- reduction of membrane ruffles in response to EGF ([1]; 1000 nM): 58%
- inhibition at […] (MDA-MB-435; 250 nM (FIG. 1C), read-out: inhibition of MDA-MB-435 cells): ~60%
- cytotoxicity at 0.5 µM (MDA-MB-435; 500 nM, 72 hours, read-out: decrease in cell viability, MDA-MB-435): ~80%
- GI50 (MDA-MB-435; 120 hours, 0-1000 nM, read-out: GI50, MDA-MB-435): 0.261 µM
- GI50 (Panc-1 [2]): 0.235 µM
- inhibition at 0.15 µM ([3]; 150 nM): 50%
- inhibition at […] ([3]; 250 nM): 80%
- inhibition at 0.5 µM ([3]; 500 nM): 90%
- reduction of Rac1 activation by GTP loading (Rac1): 85%
- inhibition at […] (Panc-1 [4]; 250 nM): ~40%
- inhibition at 0.5 µM (Panc-1 [4]; 500 nM): 75%

From patent US20250214973A1, “1,4,5-TRISUBSTITUTED-1,2,3-TRIAZOLES AND USES THEREOF” (UNIVERSITY OF PUERTO RICO, priority 2022, published 2025)
